{"source": "patent US10464901B2", "about": "“Composition including benzene diamine derivative for preventing or treating degenerative brain diseases” (UNIST(ULSAN NATIONAL INSTITUTE OF SCIENCE AND TECHNOLOGY), priority 2017, dated 2019)", "key": {"[1]": {"assay": "Antioxidant effect: free organic radical-scavenging activity (ABTS) using cell lysate", "assay_type": "biochemical", "details": "Table 1 summary of Example 3; symbols not defined", "description": "It was examined whether the benzene diamine derivatives of the present disclosure have an antioxidant effect. It is known that reactive oxygen species induces oxidative stress in neuronal cells to cause neuronal cell death and causes protein misfolding to induce formation of Aβ aggregates. Therefore, compounds having antioxidant effects may be candidates for preventing or treating dementia.\nFree organic radical-scavenging activity of the compound was determined according to a protocol of Cayman Chemical Company (Ann Arbor, Mich., USA) with slight modifications. For antioxidant analysis using a cell lysate, cells were seeded in a 6-well plate, and cultured until they reached 80-90% confluence. A cell lysate was prepared according to a known method, washed with a cold phosphate buffer solution (PBS; pH 7.4, GIBCO), and then harvested. Cell pellet was produced by centrifugation (2,000 g, 4° C., 10 min). This pellet was sonicated (5 sec pulse, 20 sec interval, three times) in 2 ml of cold assay buffer S13 (5 mM potassium phosphate, pH 7.4; 0.9% NaCl; 0.1% glucose) on ice. A cell lysate was centrifuged at 4° C. for 10 minutes at 5,000 g. A supernatant was removed, and left on ice until use. To the cell lysate supernatant (10 μl), the compound, metmyoglobin, ABTS (2,2′-azino-bis-3-ethylbenzothiazoline-6-sulfonic acid), and hydrogen peroxide were sequentially added. The mixture was incubated on a shaker at room temperature for 5 minutes, and absorbance at 750 nm was measured. The compound at a final concentration of 45, 90, 135, 180, 225, or 330 μM and Trolox (6-hydroxy-2,5,7,8-tetramethyl-chroman-2-carboxylic acid, dissolved in EtOH) were used. Antioxidant activity was calculated according to the measured absorbance [% inhibition=100×(A0−A)/A0, A0 represents absorbance of the supernant of the cell lysate]. Each measurement was repeated in triplicate."}, "oligomeric Aβ42": {"biological_target": "T1, oligomeric Aβ42 (Homo sapiens, UniProt P05067)", "T1 construct": "from tissue; host or cells: brain of dementia mouse models", "T1 sequence (P05067 672-713 limits assumed)": "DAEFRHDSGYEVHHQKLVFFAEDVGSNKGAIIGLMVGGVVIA", "assay": "Brain tissue immunohistofluorescence, oligomeric Aβ", "assay_type": "in vivo, mouse", "details": "oral 100 μg/kg twice a week for 2 months, confocal, FIG. 8", "description": "Oligomeric Aβ formation in the brain tissue may cause neuronal cell death by neuronal cytotoxicity, which may cause dementia. Therefore, anatomical analysis of the brain tissue was performed to examine whether the benzene diamine derivatives of the present disclosure inhibit neuronal cytotoxicity by oligomeric Aβ in dementia mouse models.\nIn detail, as in Experimental Example 7-1, the dementia mouse models were prepared and their brain tissues were stained. Anti-oligomeric Aβ primary antibody (ab126892, Abcam, Eugene, USA) labeled with QD525 probe (red fluorescence) was used to examine changes in the quantity of oligomeric Aβ42. Further, to measure changes of plaques, the tissues were stained with a fluorescent staining reagent MX04 (blue) and incubated at 4° C. for 12 hours. Thereafter, the tissues were observed under a confocal microscope at 0.5×10."}, "PAMPA-BBB analysis": {"assay": "PAMPA-BBB analysis", "assay_type": "in vitro ADME", "description": "[…] PAMPA-BBB analysis was performed by using a PAMPA Explorer kit (pION, Inc. Billerica, Mass., USA) according to the manufacture's protocol with slight modifications. […] The prepared solution was put in each well of a donor plate (200 μl, repeated 12 times). A polyvinylidene fluoride (PVDF, […]) filter membrane on an acceptor plate was coated with BBB-1 lipid formulation (5 μl, pION). The acceptor plate was placed on top of the donor plate to generate a “sandwich”. Brain sink buffer (BSB, 200 μl, pION) was added to each well of the acceptor plate. The sandwich-shaped plate was incubated for 4 hours at room temperature without stirring. UV-vis spectra of the solutions in the reference, acceptor, and donor plates were measured using a microplate reader. A PAMPA Explorer software [v. 3.8 (pION)] was used to calculate the −log Pe values for compounds. CNS±designations were assigned by comparison with compounds that were identified in previous reports."}}, "data": [{"smiles": "Nc1ccc(NCc2ccccn2)cc1", "note": "[Compound 2, N^1-(pyridin-2-ylmethyl)benzene-1,4-diamine]", "values": [{"measurement": "Reactive oxygen species (antioxidant effect)", "setting": "[1]", "result": "◯ (better effect than TEAC)"}, {"measurement": "oligomeric Aβ in brain", "setting": "oligomeric Aβ42", "result": "oligomeric Aβ was hardly observed"}, {"measurement": "PAMPA-BBB permeability class", "setting": "PAMPA-BBB analysis; 50 μM, incubation 4 hrs, U.V", "result": "High"}, {"measurement": "Papp at 4 h, 50 μM", "setting": "PAMPA-BBB analysis; PAMPA, pH 7.4, 50 μM, incubation 4 hrs, U.V, read-out: Pe", "result": 12.5, "unit": "×10⁻⁶ cm/s"}, {"measurement": "CNS± designation", "setting": "PAMPA-BBB analysis; assigned by comparison with compounds identified in previous reports", "result": "(CNS+)"}]}]}
